Values of other authors, collected in patent US11413229B2, “Oral plaque dispersion agent” (KAO CORPORATION, priority 2016, dated 2022).

Settings: at 20° C.

CC(CO)(CO)CO [Trimethylolethane, 1,1,1-tris(hydroxymethyl)ethane]
solubility to water: 60 g/100 mL
